Experimental data taken from the NIST ThermoML archive (doi:10.1021/je025660t).

Conditions: Liquid

CCCCCN [1-pentanamine]
Conditions	vapor or sublimation pressure [kPa]
322.61 K	13.08
328.37 K	16.87
333.14 K	20.65
338.07 K	25.25
340.66 K	27.99
343.16 K	30.85
345.56 K	33.81
348.11 K	37.22
353.15 K	44.75
358.15 K	53.38
363.14 K	63.27
370.62 K	80.72
377.93 K	101.33

COCC(C)O (centres undefined) [1-methoxy-2-propanol]
Conditions	vapor or sublimation pressure [kPa]
331.47 K	9.246
333.15 K	10.01
339.12 K	13.11
343.15 K	15.79
347.71 K	19.25
351.56 K	22.64
353.15 K	24.17
355.59 K	26.69
358.15 K	29.57
360.78 K	32.79
363.01 K	35.74
368.23 K	43.48
373.31 K	52.31

CCC#N [propanenitrile]
Conditions	vapor or sublimation pressure [kPa]
309.38 K	10.59
311.56 K	11.55
313.15 K	12.55
315.89 K	14.14
318.35 K	15.71
320.51 K	17.22
323.15 K	19.22
325.74 K	21.35
328.27 K	23.64
330.82 K	26.11
333.15 K	28.57
335.82 K	31.64
338.22 K	34.61
343.08 K	41.33
348.09 K	49.32
353.15 K	58.6

CC#N [acetonitrile]
Conditions	vapor or sublimation pressure [kPa]
302.25 K	14.15
307.09 K	17.52
311.49 K	21.13
313.15 K	22.65
316.27 K	25.72
318.18 K	27.78
320.65 K	30.64
323.16 K	33.8
326.16 K	37.9
328.5 K	41.38
331.15 K	45.62
333.15 K	49.06
335.84 K	54.01
338.15 K	58.58
343.18 K	69.62
348.25 K	82.37
353.1 K	96.34
